{"source": "patent US8569302B2", "about": "“Inhibitors of flaviviridae viruses” (Gilead Sciences, Inc., priority 2009, dated 2013)", "data": [{"tested_on": "human hepatoma Huh-7 cell line harboring a HCV replicon", "experiment": "HCV replicon assay (inhibition of viral replication, luciferase readout)", "format": "cell-based", "conditions": "Hepatitis C virus, 72 h, Huh-7 HCV replicon cells, 3 days incubation", "summary_of_the_method": "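Read-outs: luciferase luminescence for replication inhibition, corrected by ITMN-191 (100% inhibition) wells, and calcein AM fluorescence for cytotoxicity. Cells were treated for 3 days at 37 °C with ten 3-fold compound dilutions in 0.44% final DMSO. Percent inhibition relative to DMSO was fitted with a Hill equation to give EC50 and CC50.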", "units": {"inhibition at 2 µM": "%"}, "values": [{"compound": "CC(C)(C)C#Cc1cc(N(C(=O)[C@H]2CC[C@H](C)CC2)[C@H]2CC[C@H](Oc3cc(N4CCCC4)ncn3)CC2)c(C(=O)O)s1", "note": "[Compound 150, 5-(3,3-Dimethylbut-1-ynyl)-3-(4-methyl-N-(4-(6-(pyrrolidin-1-yl)pyrimidin-4-yloxy)cyclohexyl)cyclohexanecarboxamido)thiophene-2-carboxylic acid]", "inhibition at 2 µM": 99.6}, {"compound": "CN(C)c1nc(O[C@H]2CC[C@H](N(c3cc(C#CC(C)(C)C)sc3C(=O)O)C(=O)[C@H]3CC[C@H](C)CC3)CC2)ncc1F", "note": "[Compound 151, 3-(N-(4-(4-(Dimethylamino)-5-fluoropyrimidin-2-yloxy)cyclohexyl)-4-methylcyclohexanecarboxamido)-5-(3,3-dimethylbut-1-ynyl)thiophene-2-carboxylic acid]", "inhibition at 2 µM": 99.4}, {"compound": "CC(C)(C)C#Cc1cc(N(C(=O)[C@H]2CC[C@H](C)CC2)[C@H]2CC[C@H](Oc3cccc(N4CCCC4)n3)CC2)c(C(=O)O)s1", "note": "[Compound 152, 5-(3,3-Dimethylbut-1-ynyl)-3-(4-methyl-N-(4-(6-(pyrrolidin-1-yl)pyridin-2-yloxy)cyclohexyl)cyclohexanecarboxamido)thiophene-2-carboxylic acid]", "inhibition at 2 µM": 73.7}, {"compound": "CC(C)(C)C#Cc1cc(N(C(=O)[C@H]2CC[C@H](C)CC2)[C@H]2CC[C@H](Oc3cncc(N4CCCC4)n3)CC2)c(C(=O)O)s1", "note": "[Compound 153, 5-(3,3-Dimethylbut-1-ynyl)-3-(4-methyl-N-(4-(6-(pyrrolidin-1-yl)pyrazin-2-yloxy)cyclohexyl)cyclohexanecarboxamido)thiophene-2-carboxylic acid]", "inhibition at 2 µM": 100}, {"compound": "Cc1nsc(OC2CCC(N(c3cc(C#CC(C)(C)C)sc3C(=O)O)C(=O)[C@H]3CC[C@H](C)CC3)CC2)n1", "note": "(stereo partly drawn) [Compound 154, 5-(3,3-Dimethylbut-1-ynyl)-3-(4-methyl-N-(4-(3-methyl-1,2,4-thiadiazol-5-yloxy)cyclohexyl)cyclohexanecarboxamido)thiophene-2-carboxylic acid]", "inhibition at 2 µM": 99.7}, {"compound": "CC(C)(C)C#Cc1cc(N(C(=O)[C@H]2CC[C@H](C)CC2)C2CCC(Oc3nc(CN4CCCC4)cs3)CC2)c(C(=O)O)s1", "note": "(stereo partly drawn) [Compound 155, 5-(3,3-Dimethylbut-1-ynyl)-3-(4-methyl-N-(4-(4-(pyrrolidin-1-ylmethyl)thiazol-2-yloxy)cyclohexyl)cyclohexanecarboxamido)thiophene-2-carboxylic acid]", "inhibition at 2 µM": 100}, {"compound": "CN(C)Cc1csc(OC2CCC(N(c3cc(C#CC(C)(C)C)sc3C(=O)O)C(=O)[C@H]3CC[C@H](C)CC3)CC2)n1", "note": "(stereo partly drawn) [Compound 156, 3-(N-(4-(4-((Dimethylamino)methyl)thiazol-2-yloxy)cyclohexyl)-4-methylcyclohexanecarboxamido)-5-(3,3-dimethylbut-1-ynyl)thiophene-2-carboxylic acid]", "inhibition at 2 µM": 100}, {"compound": "CC(C)(C)C#Cc1cc(N(C(=O)[C@H]2CC[C@H](C)CC2)C2CCC(Oc3cc[n+]([O-])cc3)CC2)c(C(=O)O)s1", "note": "(stereo partly drawn) [Compound 157, 5-(3,3-Dimethylbut-1-ynyl)-3-(4-methyl-N-(4-(pyridin-4-yloxy-N-oxide)cyclohexyl)cyclohexanecarboxamido)thiophene-2-carboxylic acid]", "inhibition at 2 µM": 99.9}, {"compound": "CN(C)c1cc(O[C@H]2CC[C@H](N(c3cc(C#CC(C)(C)C)sc3C(=O)O)C(=O)[C@H]3CC[C@H](C)CC3)CC2)ncn1", "note": "[Compound 158, 3-(N-(4-(6-(Dimethylamino)pyrimidin-4-yloxy)cyclohexyl)-4-methylcyclohexanecarboxamido)-5-(3,3-dimethylbut-1-ynyl)thiophene-2-carboxylic acid]", "inhibition at 2 µM": 99.9}, {"compound": "CC(C)(C)C#Cc1cc(N(C(=O)[C@H]2CC[C@H](C)CC2)[C@H]2CC[C@H](Oc3ccc(N4CCCC4)nn3)CC2)c(C(=O)O)s1", "note": "[Compound 159, 5-(3,3-Dimethylbut-1-ynyl)-3-(4-methyl-N-(4-(6-(pyrrolidin-1-yl)pyridazin-3-yloxy)cyclohexyl)cyclohexanecarboxamido)thiophene-2-carboxylic acid]", "inhibition at 2 µM": 99.8}, {"compound": "CN(C)c1ccc(O[C@H]2CC[C@H](N(c3cc(C#CC(C)(C)C)sc3C(=O)O)C(=O)[C@H]3CC[C@H](C)CC3)CC2)nn1", "note": "[Compound 160, 3-(N-(4-(6-(Dimethylamino)pyridazin-3-yloxy)cyclohexyl)-4-methylcyclohexanecarboxamido)-5-(3,3-dimethylbut-1-ynyl)thiophene-2-carboxylic acid]", "inhibition at 2 µM": 99.9}, {"compound": "CC(C)(C)C#Cc1cc(N(C(=O)[C@H]2CC[C@H](C)CC2)[C@H]2CC[C@H](Oc3nc(CN4CCCC4)ns3)CC2)c(C(=O)O)s1", "note": "[Compound 161, 5-(3,3-Dimethylbut-1-ynyl)-3-(4-methyl-N-(4-(3-(pyrrolidin-1-ylmethyl)-1,2,4-thiadiazol-5-yloxy)cyclohexyl)cyclohexanecarboxamido)thiophene-2-carboxylic acid]", "inhibition at 2 µM": 99.9}, {"compound": "CC(C)(C)C#Cc1cc(N(C(=O)[C@H]2CC[C@H](C)CC2)[C@H]2CC[C@H](Oc3cncnc3)CC2)c(C(=O)O)s1", "note": "[Compound 162, 5-(3,3-Dimethylbut-1-ynyl)-3-(4-methyl-N-(4-(pyrimidin-5-yloxy)cyclohexyl)cyclohexanecarboxamido)thiophene-2-carboxylic acid]", "inhibition at 2 µM": 99.9}, {"compound": "CC(C)(C)C#Cc1cc(N(C(=O)[C@H]2CC[C@H](C)CC2)[C@H]2CC[C@H](Oc3ccncn3)CC2)c(C(=O)O)s1", "note": "[Compound 163, 5-(3,3-Dimethylbut-1-ynyl)-3-(4-methyl-N-(4-(pyrimidin-4-yloxy)cyclohexyl)cyclohexanecarboxamido)thiophene-2-carboxylic acid]", "inhibition at 2 µM": 100}, {"compound": "CC(C)(C)C#Cc1cc(N(C(=O)[C@H]2CC[C@H](C)CC2)[C@H]2CC[C@H](Oc3cc(C(=O)N4CCCC4)ccn3)CC2)c(C(=O)O)s1", "note": "[Compound 166, Sodium 5-(3,3-dimethylbut-1-ynyl)-3-(4-methyl-N-(4-(4-(pyrrolidine-1-carbonyl)pyridin-2-yloxy)cyclohexyl)cyclohexanecarboxamido)thiophene-2-carboxylate]", "inhibition at 2 µM": 99.9}, {"compound": "CN1CCC(NC(=O)c2ccnc(O[C@H]3CC[C@H](N(c4cc(C#CC(C)(C)C)sc4C(=O)O)C(=O)[C@H]4CC[C@H](C)CC4)CC3)c2)CC1", "note": "[Compound 167, Sodium 3-(N-(4-(4-((1-methylpiperidin-4-yl)carbamoyl)pyridin-2-yloxy)cyclohexyl)-4-methylcyclohexanecarboxamido)-5-(3,3-dimethylbut-1-ynyl)thiophene-2-carboxylate]", "inhibition at 2 µM": 99.9}, {"compound": "CC(C)(C)C#Cc1cc(N(C(=O)[C@H]2CC[C@H](C)CC2)[C@H]2CC[C@H](Oc3cc(C(=O)N4CCC4)ccn3)CC2)c(C(=O)O)s1", "note": "[Compound 168, Sodium 3-(N-(4-(4-(azetidine-1-carbonyl)pyridin-2-yloxy)cyclohexyl)-4-methylcyclohexanecarboxamido)-5-(3,3-dimethylbut-1-ynyl)thiophene-2-carboxylate]", "inhibition at 2 µM": 99.9}, {"compound": "CN(C)C1CCN(C(=O)c2ccnc(O[C@H]3CC[C@H](N(c4cc(C#CC(C)(C)C)sc4C(=O)O)C(=O)[C@H]4CC[C@H](C)CC4)CC3)c2)C1", "note": "(stereo partly drawn) [Compound 169, Sodium 3-(N-(4-(4-(3-(dimethylamino)pyrrolidine-1-carbonyl)pyridin-2-yloxy)cyclohexyl)-4-methylcyclohexanecarboxamido)-5-(3,3-dimethylbut-1-ynyl)thiophene-2-carboxylate]", "inhibition at 2 µM": 100}, {"compound": "CC(C)(C)C#Cc1cc(N(C(=O)[C@H]2CC[C@H](C)CC2)[C@H]2CC[C@H](Oc3ccc(CN4CCCC4=O)cn3)CC2)c(C(=O)O)s1", "note": "[Compound 170, Sodium 5-(3,3-dimethylbut-1-ynyl)-3-(4-methyl-N-(4-(5-((2-oxopyrrolidin-1-yl)methyl)pyridin-2-yloxy)cyclohexyl)cyclohexanecarboxamido)thiophene-2-carboxylate]", "inhibition at 2 µM": 99.9}, {"compound": "CC(C)(C)C#Cc1cc(N(C(=O)[C@H]2CC[C@H](C)CC2)[C@@H]2CCC(Oc3ccccn3)C(CN3CCCC3)C2)c(C(=O)O)s1", "note": "(stereo partly drawn) [Compound 171, Sodium 5-(3,3-dimethylbut-1-ynyl)-3-(4-methyl-N-((1R)-4-(pyridin-2-yloxy)-3-(pyrrolidin-1-ylmethyl)cyclohexyl)cyclohexanecarboxamido)thiophene-2-carboxylate]", "inhibition at 2 µM": 99.7}, {"compound": "Cn1nc(O[C@H]2CC[C@@H](N(c3cc(C#CC(C)(C)C)sc3C(=O)O)C(=O)[C@H]3CC[C@H](C)CC3)CC2)ccc1=O", "note": "[Compound 173, Sodium 5-(3,3-dimethylbut-1-ynyl)-3-(4-methyl-N-(4-(1-methyl-6-oxo-1,6-dihydropyridazin-3-yloxy)cyclohexyl)cyclohexanecarboxamido)thiophene-2-carboxylate]", "inhibition at 2 µM": 100}, {"compound": "Cn1nc(O[C@H]2CC[C@H](N(c3cc(C#CC(C)(C)C)sc3C(=O)O)C(=O)[C@H]3CC[C@H](C)CC3)CC2)ccc1=O", "note": "[Compound 174, 5-(3,3-Dimethylbut-1-ynyl)-3-(4-methyl-N-(4-(1-methyl-6-oxo-1,6-dihydropyridazin-3-yloxy)cyclohexyl)cyclohexanecarboxamido)thiophene-2-carboxylic acid]", "inhibition at 2 µM": 100}, {"compound": "CN(C)Cc1ccnc(O[C@H]2CC[C@@H](N(c3cc(C#CC(C)(C)C)sc3C(=O)O)C(=O)[C@H]3CC[C@H](C)CC3)CC2)c1", "note": "[Compound 175, Sodium 3-(N-(4-(4-((dimethylamino)methyl)pyridin-2-yloxy)cyclohexyl)-4-methylcyclohexanecarboxamido)-5-(3,3-dimethylbut-1-ynyl)thiophene-2-carboxylate]", "inhibition at 2 µM": 100}, {"compound": "CC(C)(C)C#Cc1cc(N(C(=O)[C@H]2CC[C@H](C)CC2)[C@H]2CC[C@H](Oc3ccc4nccn4n3)CC2)c(C(=O)O)s1", "note": "[Compound 176, Sodium 5-(3,3-dimethylbut-1-ynyl)-3-(N-(4-(imidazo[1,2-b]pyridazin-6-yloxy)cyclohexyl)-4-methylcyclohexanecarboxamido)thiophene-2-carboxylate]", "inhibition at 2 µM": 99.8}]}]}
